Patent US6589549B2, “Bioactive agent delivering system comprised of microparticles within a biodegradable to improve release profiles” (Macromed, Incorporated, priority 2000, dated 2003)

Conditions: in the presence of the block copolymer

chemical stability in the aqueous polymer composition relative to aqueous solutions with organic co-solvents: substantially stabilized
SMILES: CC(=O)O[C@H]1C(=O)[C@@]2(C)[C@H]([C@H](OC(=O)c3ccccc3)[C@]3(O)C[C@H](OC(=O)[C@H](O)[C@@H](NC(=O)c4ccccc4)c4ccccc4)C(C)=C1C3(C)C)[C@]1(OC(C)=O)CO[C@@H]1C[C@@H]2O [paclitaxel]
